Laboratory results published in patent US7173004B2, “Macrocyclic isoquinoline peptide inhibitors of hepatitis C virus” (Bristol-Myers Squibb Company, priority 2003, dated 2007).

The compounds below were run on HCV replicon (HCV 1b-377-neo replicon cells, Huh7) (assay: HCV replicon cell-based FRET assay). Details: Hepatitis C virus, Huh-7.
Procedure, shortened: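 Huh7 cells carrying a neo-selectable genotype 1b HCV replicon (~3,000 RNA copies/cell) were seeded at 1.5×10^4 cells/well and treated 4 days at 37 °C (0.5% DMSO final). CC50 was read by alamar Blue (4 h, ex 530/em 580 nm). Lysates with 10 μM EDANS/DABCYL NS3 protease FRET peptide were read kinetically (ex 340/em 490 nm, 25 °C, ~15 min) for % inhibition.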

SMILES	EC50 [µM]
CC(C)(C)NC(=O)N[C@H]1CCCCC/C=C\[C@@H]2C[C@@]2(C(=O)NS(=O)(=O)C2CC2)NC(=O)[C@@H]2C[C@@H](Oc3nccc4ccccc34)CN2C1=O [Compound 126]	< 0.05
CCC(C)(C)OC(=O)NC1CCCCCC=CC2CC2(C(=O)NS(=O)(=O)C2CC2)NC(=O)C2CC(Oc3nccc4ccccc34)CN2C1=O (stereo not shown) [Compound 125]	< 0.05
COc1ccc2c(OC3CC4C(=O)NC5(C(=O)NS(=O)(=O)C6CC6)CC5C=CCOCCCC(NC(=O)OC(C)(C)C)C(=O)N4C3)nc(-c3ccc(N(C)C=O)cc3)cc2c1 (stereo not shown) [Compound 114]	< 0.05
COc1ccc2c(OC3CC4C(=O)NC5(C(=O)NS(=O)(=O)C6CC6)CC5C=CCCCCCC(NC(=O)OC(C)(C)C)C(=O)N4C3)nccc2c1F (stereo not shown) [Compound 132]	< 0.05
O=C(NC1CCCC1)NC1CCCCCC=CC2CC2(C(=O)NS(=O)(=O)C2CC2)NC(=O)C2CC(Oc3nccc4ccccc34)CN2C1=O (stereo not shown) [Compound 127]	< 0.05
COc1ccc2c(OC3CC4C(=O)NC5(C(=O)NS(=O)(=O)C6CC6)CC5C=CCOCCCC(NC(=O)OCC(C)(C)C)C(=O)N4C3)nc(-c3ccccc3)cc2c1 (stereo not shown) [Compound 103]	< 0.05
COc1ccc2c(OC3CC4C(=O)NC5(C(=O)NS(=O)(=O)C6CC6)CC5C=CCCCOCC(NC(=O)OC(C)C)C(=O)N4C3)nccc2c1 (stereo not shown) [Compound 89]	< 0.05
COc1ccc2c(OC3CC4C(=O)NC5(C(=O)NS(=O)(=O)C6CC6)CC5C=CCOCCCC(NC(=O)N5CCNC5=O)C(=O)N4C3)nc(-c3ccccc3)cc2c1 (stereo not shown) [Compound 106]	0.5 to 5
COc1ccc2c(OC3CC4C(=O)NC5(C(=O)NS(=O)(=O)C6CC6)CC5C=CCCCOCC(NC(=O)OC5CCCC5)C(=O)N4C3)nc(-c3ccc(N(C)C)cc3)cc2c1 (stereo not shown) [Compound 110]	< 0.05
COc1ccc2c(OC3CC4C(=O)NC5(C(=O)NS(=O)(=O)C6CC6)CC5C=CCCCCCC(NC(=O)NC(C)(C)C)C(=O)N4C3)nccc2c1 (stereo not shown) [Compound 135]	< 0.05
CC(=O)C(C)(C)OC(=O)NC1CCCCCC=CC2CC2(C(=O)NS(=O)(=O)C2CC2)NC(=O)C2CC(Oc3nccc4ccccc34)CN2C1=O (stereo not shown) [Compound 123]	0.05 to 0.5
COc1ccc2c(OC3CC4C(=O)NC5(C(=O)NS(=O)(=O)C6CC6)CC5C=CCCCSCC(N)C(=O)N4C3)nccc2c1 (stereo not shown) [Compound 117]	0.05 to 0.5
COc1ccc2c(OC3CC4C(=O)NC5(C(=O)NS(=O)(=O)C6CC6)CC5C=CCCCOCC(NC(=O)OC(C)C)C(=O)N4C3)nc(-c3ccccc3)cc2c1 (stereo not shown) [Compound 96]	< 0.05
COc1ccc2c(O[C@@H]3C[C@H]4C(=O)N[C@]5(C(=O)NS(=O)(=O)C6CC6)C[C@H]5/C=C\CCCSC(C)(C)[C@H](NC(=O)OC(C)(C)C)C(=O)N4C3)nccc2c1 [Compound 80, (1S,4R,6S,14R,18R)-[7-cis-4-Cyclopropanesulfonylaminocarbonyl-13,13-dimethyl-18-(6-methoxyisoquinolin-1-yloxy)-2,15-dioxo-12-thia-3,16-diaza-tricyclo[14.3.0.0^4,6]nonadec-7-en-14-yl]carbamic acid, tert-butyl ester]	0.05 to 0.5
COc1ccc2c(OC3CC4C(=O)NC5(C(=O)NS(=O)(=O)C6CC6)CC5C=CCCCOCC(NC(=O)OCC(C)(C)C)C(=O)N4C3)nc(-c3ccccc3)cc2c1 (stereo not shown) [Compound 95]	< 0.05
COc1ccc2c(OC3CC4C(=O)NC5(C(=O)NS(=O)(=O)C6CC6)CC5C=CCOCCCC(NC(=O)N5CCCC5)C(=O)N4C3)nc(-c3ccccc3)cc2c1 (stereo not shown) [Compound 100]	< 0.05
COc1ccc2c(OC3CC4C(=O)NC5(C(=O)NS(=O)(=O)C6CC6)CC5C=CCCCSC(C)(C)C(NC(=O)NC(C)(C)C)C(=O)N4C3)nccc2c1 (stereo not shown) [Compound 81]	0.05 to 0.5
CC(C)(C)NC(=O)N1CCC/C=C\[C@@H]2C[C@@]2(C(=O)NS(=O)(=O)C2CC2)NC(=O)[C@@H]2C[C@@H](Oc3nccc4ccccc34)CN2C(=O)[C@@H](NC(=O)OC(C)(C)C)C1 [Compound 150]	0.05 to 0.5
CNc1ccc(-c2cc3cc(OC)ccc3c(OC3CC4C(=O)NC5(C(=O)NS(=O)(=O)C6CC6)CC5C=CCOCCCC(NC(=O)OC(C)(C)C)C(=O)N4C3)n2)cc1 (stereo not shown) [Compound 113]	< 0.05
COc1ccc2c(OC3CC4C(=O)NC5(C(=O)NS(=O)(=O)C6CC6)CC5C=CCCCCCC(NC(=O)NC5CCCC5)C(=O)N4C3)nccc2c1 (stereo not shown) [Compound 136]	< 0.05
CC1(COC(=O)NC2CCCCCC=CC3CC3(C(=O)NS(=O)(=O)C3CC3)NC(=O)C3CC(Oc4nccc5ccccc45)CN3C2=O)CC1 (stereo not shown) [Compound 122]	< 0.05
COc1ccc2c(OC3CC4C(=O)NC5(C(=O)NS(=O)(=O)C6CC6)CC5C=CCCCOCC(NC(=O)OC5CCCC5)C(=O)N4C3)nccc2c1 (stereo not shown) [Compound 90]	< 0.05
CC(C)(C)OC(=O)N[C@H]1CN(S(=O)(=O)c2ccccc2[N+](=O)[O-])CCC/C=C\[C@@H]2C[C@@]2(C(=O)NS(=O)(=O)C2CC2)NC(=O)[C@@H]2C[C@@H](Oc3nccc4ccccc34)CN2C1=O [Compound 145]	0.05 to 0.5

SMILES	EC50 [µM]
CC(C)(C)CC(C)(C)NC(=O)NC1CCCCCC=CC2CC2(C(=O)NS(=O)(=O)C2CC2)NC(=O)C2CC(Oc3nccc4ccccc34)CN2C1=O (stereo not shown) [Compound 129]	< 0.05
COc1cccc2c(OC3CC4C(=O)NC5(C(=O)NS(=O)(=O)C6CC6)CC5C=CCCCCCC(NC(=O)OC(C)(C)C)C(=O)N4C3)nccc12 (stereo not shown) [Compound 133]	< 0.05
COc1ccc2c(OC3CC4C(=O)NC5(C(=O)NS(=O)(=O)C6CC6)CC5C=CCOCCCC(NC(=O)OC(C)C)C(=O)N4C3)nc(-c3ccccc3)cc2c1 (stereo not shown) [Compound 98]	< 0.05
COc1ccc2c(OC3CC4C(=O)NC5(C(=O)NS(=O)(=O)C6CC6)CC5C=CCCCOCC(NC(=O)N5CCCC5)C(=O)N4C3)nc(-c3ccc(N(C)C)cc3)cc2c1 (stereo not shown) [Compound 111]	< 0.05
COc1ccc2c(OC3CC4C(=O)NC5(C(=O)NS(=O)(=O)C6(C)CC6)CC5C=CCCCSCC(NC(=O)OC(C)(C)C)C(=O)N4C3)nccc2c1 (stereo not shown) [Compound 115]	< 0.05
COc1ccc2c(OC3CC4C(=O)NC5(C(=O)NS(=O)(=O)C6CC6)CC5C=CCOCCCC(NC(=O)NC(C)(C)C)C(=O)N4C3)nc(-c3ccccc3)cc2c1 (stereo not shown) [Compound 102]	< 0.05
COc1ccc2c(OC3CC4C(=O)NC5(C(=O)NS(=O)(=O)C6CC6)CC5C=CCCCOCC(NC(=O)NC(C)(C)C)C(=O)N4C3)nc(-c3ccc(N(C)C)cc3)cc2c1 (stereo not shown) [Compound 108]	< 0.05
COc1ccc2c(OC3CC4C(=O)NC5(C(=O)NS(=O)(=O)C6CC6)CC5C=CCCCOCC(NC(=O)OCC(C)(C)C)C(=O)N4C3)nccc2c1 (stereo not shown) [Compound 88]	< 0.05
COc1ccc2c(OC3CC4C(=O)NC5(C(=O)NS(=O)(=O)C6CC6)CC5C=CCCCOCC(NC(=O)N5CCCC5)C(=O)N4C3)nc(-c3ccccc3)cc2c1 (stereo not shown) [Compound 93]	< 0.05
COc1ccc2c(O[C@@H]3C[C@H]4C(=O)N[C@]5(C(=O)NS(=O)(=O)C6CC6)C[C@H]5/C=C\CCCOC[C@H](NC(=O)OC(C)(C)C)C(=O)N4C3)nccc2c1 [Compound 85, (1S,4R,6S,14S,18R)-[7-cis-4-Cyclopropanesulfonylaminocarbonyl-18-(6-methoxy-isoquinolin-1-yloxy)-2,15-dioxo-12-oxa-3,16-diaza-tricyclo[14.3.0.0^4,6]nonadec-7-en-14-yl]-carbamic acid, tert-butyl ester]	< 0.05
COc1ccc2c(OC3CC4C(=O)NC5(C(=O)NS(=O)(=O)C6CC6)CC5C=CCCCOCC(NC(=O)NC5CCCC5)C(=O)N4C3)nccc2c1 (stereo not shown) [Compound 87]	< 0.05
CC(C)(C)COC(=O)N1CCCC=CC2CC2(C(=O)NS(=O)(=O)C2CC2)NC(=O)C2CC(Oc3nccc4ccccc34)CN2C(=O)C(NC(=O)OC(C)(C)C)C1 (stereo not shown) [Compound 149]	0.05 to 0.5
COC(=O)N1CCC/C=C\[C@@H]2C[C@@]2(C(=O)NS(=O)(=O)C2CC2)NC(=O)[C@@H]2C[C@@H](Oc3nccc4ccccc34)CN2C(=O)[C@@H](NC(=O)OC(C)(C)C)C1 [Compound 148]	0.05 to 0.5
CC(C)(C)OC(=O)NC1CCCCCC=CC2CC2(C(=O)NS(=O)(=O)C2CC2)NC(=O)C2CC(Oc3nccc4c(Cl)cccc34)CN2C1=O (stereo not shown) [Compound 130]	< 0.05
COc1ccc2c(OC3CC4C(=O)NC5(C(=O)NS(=O)(=O)C6CC6)CC5C=CCOCCCC(NC(=O)OC5CCCC5)C(=O)N4C3)nc(-c3ccccc3)cc2c1 (stereo not shown) [Compound 99]	< 0.05
CC(C)(OC(=O)NC1CCCCCC=CC2CC2(C(=O)NS(=O)(=O)C2CC2)NC(=O)C2CC(Oc3nccc4ccccc34)CN2C1=O)C(Cl)(Cl)Cl (stereo not shown) [Compound 124]	< 0.05
COc1ccc2c(OC3CC4C(=O)NC5(C(=O)NS(=O)(=O)C6CC6)CC5C=CCCCOCC(NC(=O)NC(C)(C)C)C(=O)N4C3)nccc2c1 (stereo not shown) [Compound 86]	< 0.05
COc1ccc2c(O[C@@H]3C[C@H]4C(=O)N[C@]5(C(=O)NS(=O)(=O)C6CC6)C[C@H]5/C=C\COCC[C@H](NC(=O)OC(C)(C)C)C(=O)N4C3)nccc2c1 [Compound 141, [(Z)-(1S,4R,13S,17R)-4-cyclopropanesulfonylaminocarbonyl-17-(6-methoxy-isoquinolin-1-yloxy)-2,14-dioxo-10-oxa-3,15-diaza-tricyclo[13.3.0.0^4,6]octadec-7-en-13-yl]-carbamic acid tert-butyl ester]	0.5 to 5
COc1ccc2c(OC3CC4C(=O)NC5(C(=O)NS(=O)(=O)C6CC6)CC5C=CCCCOCC(NC(=O)OC5CCCC5)C(=O)N4C3)nc(-c3ccccc3)cc2c1 (stereo not shown) [Compound 94]	< 0.05
COc1ccc2c(OC3CC4C(=O)NC5(C(=O)NS(=O)(=O)C6CC6)CC5C=CCCCSC(C)(C)C(N)C(=O)N4C3)nccc2c1 (stereo not shown) [Compound 83]	5 to 50
CCC1(S(=O)(=O)NC(=O)C23CC2C=CCCCSCC(NC(=O)OC(C)(C)C)C(=O)N2CC(Oc4nccc5cc(OC)ccc45)CC2C(=O)N3)CC1 (stereo not shown) [Compound 121]	< 0.05
CCSC(=O)NC1CCCCCC=CC2CC2(C(=O)NS(=O)(=O)C2CC2)NC(=O)C2CC(Oc3nccc4ccccc34)CN2C1=O (stereo not shown) [Compound 118]	< 0.05
CC(C)NC(=O)NC1CCCCCC=CC2CC2(C(=O)NS(=O)(=O)C2CC2)NC(=O)C2CC(Oc3nccc4ccccc34)CN2C1=O (stereo not shown) [Compound 128]	< 0.05
